The results in this text go back to patent publication US7235689B2, “Hydroxamic acid derivatives having anti-inflammatory action” (Italfarmaco SpA, priority 2003, dated 2007).

For data set [1], the system named is human HEP-G2 hepatoma cell line. Description: Cytotoxicity in vitro on HEP-G2 cells (formazane colorimetric assay). To be noted: 48 h. Format: cell-based. The protocol:
The cytotoxicity of some compounds described in the preceding examples was evaluated in vitro on the human HEP-G2 hepatoma cell line by a commercial colorimetric method (Cell Titer 96® Aqueous One Solution Cell Proliferation Assay—Promega); the method determines the number of living cells on the basis of their ability to metabolize a tetrazolium salt producing formazane. The quantity of formazane produced is proportional to the number of living cells.
The HPE-G2 cells were distributed in micro-plates with 96 wells at a density of 4×10^4 cells/well (100 μl) in M199 medium containing 10% of bovine foetal serum and supplements (complete medium).
After incubation for 24 h (37° C., 5% CO2, 90% humidity) the cells were washed once and the medium was replaced with 200 μl of complete medium containing the substances to be tested at final concentrations of 10^−5, 10^−6 and 10^−7 M. The test was performed in triplicate.
The plates were incubated for a further 48 h, after which 100 μl of medium was removed and 20 μl per well of dye solution was added in accordance with the supplier's instructions. The optical density (λ=490 nm) was read after incubation for 1 h at 37° C. with the use of a plate reader (Victor 2—Wallace Perkin Elmer).
The results are expressed as the percentage inhibition of the formation of formazane in comparison with the control.

The nature of data set [2]: Metabolic resistance in vitro, S9 liver fraction. To be noted: 6 μg/ml, 37° C., phosphate buffer pH 7.4, S9 fraction protein content 2 mg/ml. The format is in vitro ADME. How it is done: The metabolic resistance of some compounds described in the preceding examples was evaluated by incubating the substances with the S9 fraction of a microsomal preparation of liver cells. Each compound (6 μg/ml) was incubated at 37° C. for 30 min. in phosphate buffer (pH 7.4) containing the S9 fraction (protein content 2 mg/ml). The reaction was stopped by cooling in an ice bath and adding an equal volume of water/acetonitrile (50:50) containing 0.2% of trifluoroacetic acid. After centrifuging, an aliquot of the supernatant fluid was analyzed by HPLC to evaluate the percentage of product that had remained intact.

Data set [3] addresses mouse HDAC-1 enzyme (Mus musculus, UniProt O09106). In words: Inhibition of the enzymatic activity of histone deacetylase. Format: biochemical. The protocol:
The capacity of the compounds of the invention to inhibit the activity of the histone deacetylase enzyme was evaluated with the use of the mouse HADC-1 enzyme. The assay was performed by the method already described in the literature [Biochem. Biophys. Acta, 1996, vol. 1296, p. 181]. The IC50 values (concentration which inhibits the activity of the enzyme by 50%) were derived from the percentages of inhibition obtained with various concentrations of the compound under test; these values are given in the following table.

Data set [4] deals with TNFα production. Description: Inhibition of TNFα production in mice induced by LPS (in vivo). Conditions: CD1 female mice, 1 mg/kg orally 60 min. prior to LPS 2 mg/kg i.p., blood TNFα 90 min. after LPS. How it is done: For the compounds of the present invention, the capacity to inhibit TNFα production induced by the administration of LPS was evaluated in mice.
A lethal quantity of LPS (E. coli 055:B5; 2 mg/kg) was administered to the animals (CD1 female mice) by an intraperitoneal route; 90 min. after administration, the animals were killed and the TNFα content present in the blood was determined by ELISA assay.
The compounds under test, suspended in Methyl Cellosolve (0.5% in water), were administered orally, 60 min. prior to the administration of LPS, at a dose of 1 mg/kg.
The results are given in the following table; the values are expressed as percentage inhibition of TNFα production in comparison with the control group.

Data set [5] concerns TNFα production in human monocytes stimulated with LPS. In words: Inhibition of TNFα production in human monocytes stimulated with LPS (in vitro). The format is cell-based. To be noted: Monocyte; human mononuclear peripheral blood cells, LPS 10 ng/ml, 24 hours, ELISA; average of at least two determinations. How it is done:
The compounds were dissolved in DMSO to a final concentration of 120 mM and were stored at −80° C. The solutions for the test were prepared by diluting the mother solutions in RPMI 1640 with the addition of 1% FCS and 0.01% DMSO and were filtered with 0.2 μm filters.
Mononuclear peripheral blood cells were obtained from “buffy coats” of healthy donors by separation in a Ficoll-Hypaque gradient. The cells were spread in plates with 96 wells at a concentration of about 500,000 cells per well, suspended in RPMI 1640 containing 1% FCS and were incubated at 37° C. in the presence of various concentrations (from 10^−6 to 10^−11 M) of the compounds to be tested.
After 1 hour, LPS was added (to a final concentration of 10 ng/ml; obtained from E. coli 055:B5) and the plates were incubated at 37° C. for a further 24 hours. Upon completion, the supernatant fluids were collected and used for the determination of the TNFα content by ELISA (ELISA Duoset Kit; R&D systems, Minneapolis, Minn., USA).
The concentration of TNFα was calculated with the use of a calibration curve and the IC50 values (concentration which inhibits the production of the cytokine by 50%) were calculated from the curve obtained, giving the percentage inhibition values for each individual concentration of the compound under test.
The values obtained for the compounds described in the preceding examples are given in the following table (the values are the average of the results obtained in at least two determinations, performed with cells of different donors).
Background: ELISA stands for enzyme-linked immunosorbent assay.

Sequence of mouse HDAC-1 enzyme (O09106 whole entry): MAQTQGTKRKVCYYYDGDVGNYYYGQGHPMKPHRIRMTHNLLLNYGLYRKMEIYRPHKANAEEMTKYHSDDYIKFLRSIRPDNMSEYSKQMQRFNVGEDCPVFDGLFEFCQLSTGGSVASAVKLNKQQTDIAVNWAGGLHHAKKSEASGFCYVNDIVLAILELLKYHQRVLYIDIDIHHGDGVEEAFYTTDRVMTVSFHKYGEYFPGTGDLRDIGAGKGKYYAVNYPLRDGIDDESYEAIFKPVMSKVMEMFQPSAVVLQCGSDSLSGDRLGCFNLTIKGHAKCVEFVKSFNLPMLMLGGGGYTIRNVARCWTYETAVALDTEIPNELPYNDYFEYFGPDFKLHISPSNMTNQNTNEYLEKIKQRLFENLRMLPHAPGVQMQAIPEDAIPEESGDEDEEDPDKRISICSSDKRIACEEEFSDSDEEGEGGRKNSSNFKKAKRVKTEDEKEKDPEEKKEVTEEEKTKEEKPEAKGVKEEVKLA

As a reminder, the IC50 is the midpoint of a concentration-inhibition curve. Low readings indicate inhibition by little substance, high ones a need for much substance. Take `O=C(Cc1ccc(C(F)(F)F)cc1)Nc1ccc(C(=O)NO)cc1` [Ex. 01, N-hydroxy-4-[2-(4-trifluoromethyl-phenyl)-acetylamino]-benzamide]: the “Cytotoxicity at 10^−6 M (percentage inhibition of the formation of formazane)” value in data set [1] came to 3.8%. Further, the “Residual product after 30 min.” value in data set [2] amounted to 78.9%. Besides, the values for the IC50 in data set [3] and in data set [5] were 142 nM and 14.5 nM, respectively. Also, the “Inhibition of TNFα production in comparison with the control group” value (shortened to “Inhibition of TNFα production”) in data set [4] was determined as 67%.

Turning to `CC(CC(=O)Nc1ccc(C(=O)NO)cc1)c1ccccc1` (stereo not drawn) [Ex. 02, N-hydroxy-4-(3-phenyl-butyrylamino)-benzamide], the IC50 in data set [5] came out at 76 nM.

As to `COc1cccc(CCC(=O)Nc2ccc(C(=O)NO)cc2)c1` [Ex. 03, N-hydroxy-4-[3-(3-methoxy-phenyl)-propionylamino]-benzamide], in data set [1], the “Cytotoxicity at 10^−6 M (percentage inhibition of the formation of formazane)” value was found to be 7.3%. Further, in data set [2], the “Residual product after 30 min.” value worked out at 60.7%. Besides, the figures for the concentration for half-maximal inhibition (IC50) in data set [3] and in data set [5] were 219 nM and 26 nM, respectively. Moreover, in data set [4], the “Inhibition of TNFα production” value stood at 56%.

For the compound `COc1ccc(CC(=O)Nc2ccc(C(=O)NO)cc2)cc1` [Ex. 04, N-hydroxy-4-[2-(4-methoxy-phenyl)-acetylamino]-benzamide], the “Cytotoxicity at 10^−6 M (percentage inhibition of the formation of formazane)” value in data set [1] was determined as 0%. Besides, the “Residual product after 30 min.” value in data set [2] was found to be 90.2%. In addition, the concentration for half-maximal inhibition (IC50) in data set [3] amounted to 113 nM; in data set [5], 51.5 nM. In data set [4], the “Inhibition of TNFα production” value was found to be 42%.

With `CCOc1ccc(CC(=O)Nc2ccc(C(=O)NO)cc2)cc1` [Ex. 05, N-hydroxy-4-[2-(4-ethoxy-phenyl)-acetylamino]-benzamide], the “Cytotoxicity at 10^−6 M (percentage inhibition of the formation of formazane)” value in data set [1] stood at 0%. Also, the “Residual product after 30 min.” value in data set [2] is recorded as 89.0%. The IC50 in data set [3] amounted to 90 nM; in data set [5] it was 32 nM.

For `O=C(CCc1cc(C(F)(F)F)cc(C(F)(F)F)c1)Nc1ccc(C(=O)NO)cc1` [Ex. 06, N-hydroxy-4-[3-(3,5-bis-trifluoromethyl-phenyl)-propionyl-amino]-benzamide], in data set [1], the “Cytotoxicity at 10^−6 M (percentage inhibition of the formation of formazane)” value worked out at 13%. The “Residual product after 30 min.” value in data set [2] was 68.4%. Also, the IC50 in data set [3] is 19 nM; in data set [5], 17 nM.

With `COc1cc(CC(=O)Nc2ccc(C(=O)NO)cc2)cc(OC)c1OC` [Ex. 07, N-hydroxy-4-[2-(3,4,5-trimethoxy-phenyl)-acetylamino]-benzamide], the IC50 is 14 nM in data set [3] and 45 nM in data set [5].

Regarding `CSc1ccc(CC(=O)Nc2ccc(C(=O)NO)cc2)cc1` [Ex. 08, N-hydroxy-4-[2-(4-methylsulphanil-phenyl)-acetylamino]-benzamide], the half-maximal inhibitory concentration (IC50) in data set [3] worked out at 58 nM; in data set [5] it was 320 nM.

In the case of `O=C(Cc1cccc(C(F)(F)F)c1)Nc1ccc(C(=O)NO)cc1` [Ex. 09, N-hydroxy-4-[2-(3-trifluoromethyl-phenyl)-acetylamino]-benzamide], the IC50 in data set [3] came out at 67 nM; in data set [5], 70 nM.

Turning to `O=C(Cc1cccc([N+](=O)[O-])c1)Nc1ccc(C(=O)NO)cc1` [Ex. 10, N-hydroxy-4-[2-(3-nitro-phenyl)-acetylamino]-benzamide], the values for the IC50 in data set [3] and in data set [5] were 130 nM and 134 nM, respectively.

On to `O=C(Cc1cccc(Oc2ccccc2)c1)Nc1ccc(C(=O)NO)cc1` [Ex. 11, N-hydroxy-4-[2-(3-phenoxy-phenyl)-acetylamino]-benzamide], for which the IC50 worked out at 102 nM in data set [3] and 108 nM in data set [5].

For `O=C(Cc1ccc(-c2ccccc2)cc1)Nc1ccc(C(=O)NO)cc1` [Ex. 12, N-hydroxy-4-[2-(diphenyl-4-yl)-acteylamino]-benzamide], the IC50 in data set [3] stood at 7 nM; in data set [5] it was 227 nM.

`COc1cccc(CC(=O)Nc2ccc(C(=O)NO)cc2)c1OC` [Ex. 13, N-hydroxy-4-[2-(2,3-dimethoxy-phenyl)-acetylamino]-benzamide]: the values for the half-maximal inhibitory concentration (IC50) in data set [3] and in data set [5] were 202 nM and 187 nM, respectively.

For `O=C(CCc1ccccc1OC(=O)c1ccccc1)Nc1ccc(C(=O)NO)cc1` [Ex. 14, 2-[2-(4-hydroxycarbamoyl-phenylcarbamoyl)-ethyl]-phenyl ester of benzoic acid], the IC50 in data set [3] was 106 nM; in data set [5], 157 nM.

Take `O=C(Cc1ccc([N+](=O)[O-])cc1)Nc1ccc(C(=O)NO)cc1` [Ex. 15, N-hydroxy-4-[2-(4-nitro-phenyl)-acteylamino]-benzamide]: the “Cytotoxicity at 10^−6 M (percentage inhibition of the formation of formazane)” value in data set [1] is given as 0%. For the same compound, the values for the IC50 in data set [3] and in data set [5] were 146 nM and 27 nM, respectively.

In the case of `O=C(Cc1ccccc1Oc1ccccc1)Nc1ccc(C(=O)NO)cc1` [Ex. 16, N-hydroxy-4-[2-(2-phenoxy-phenyl)-acetylamino]-benzamide], the IC50 is 118 nM in data set [3] and 259 nM in data set [5].

For the compound `COc1cc(CC(=O)Nc2ccc(C(=O)NO)cc2)c([N+](=O)[O-])cc1OC` [Ex. 17, N-hydroxy-4-[2-(4,5-dimethoxy-2-nitro-phenyl)-acetylamino]-benzamide], the concentration for half-maximal inhibition (IC50) in data set [3] was 255 nM; in data set [5], 280 nM.

In the case of `O=C(Cc1ccccc1OCc1ccccc1)Nc1ccc(C(=O)NO)cc1` [Ex. 18, N-hydroxy-4-[2-(2-benzyloxy-phenyl)-acetylamino]-benzamide], the IC50 in data set [3] was 112 nM; in data set [5] it was 391 nM.

Take `O=C(Cc1ccccc1[N+](=O)[O-])Nc1ccc(C(=O)NO)cc1` [Ex. 19, N-hydroxy-4-[2-(2-nitro-phenyl)-acetylamino]-benzamide]: the IC50 in data set [3] was 214 nM; in data set [5] it was 1000 nM.
